Source: ChEMBL document CHEMBL2413072, “Synthesis and in vitro anticancer studies of novel C-2 arylidene congeners of lantadenes” (2013)

What was measured:
Format in all cases: functional
SR = assay: Growth inhibition of human SR cells assessed as cell growth at 10 uM by sulforhodamine B assay; details: read-out: Activity
MDA-MB-231 [1] = assay: Growth inhibition of human MDA-MB-231 cells assessed as cell growth at 10 uM by sulforhodamine B assay; details: read-out: Activity
MCF7 = assay: Growth inhibition of human MCF7 cells assessed as growth inhibition at 10 uM by sulforhodamine B assay; details: read-out: GI
IGROV-1 [2] = assay: Growth inhibition of human IGROV1 cells assessed as growth inhibition at 10 uM by sulforhodamine B assay; details: read-out: GI
SK-MEL-5 [3] = assay: Growth inhibition of human SK-MEL-5 cells assessed as growth inhibition at 10 uM by sulforhodamine B assay; details: read-out: GI
RXF 393 = assay: Growth inhibition of human RXF393 cells assessed as cell growth at 10 uM by sulforhodamine B assay; details: read-out: Activity
[4] = Growth inhibition of human EKVX cells assessed as growth inhibition at 10 uM by sulforhodamine B assay; details: read-out: GI
SF-268 = assay: Growth inhibition of human SF268 cells assessed as cell growth at 10 uM by sulforhodamine B assay; details: read-out: Activity
786-0 [5] = assay: Growth inhibition of human 786-0 cells assessed as growth inhibition at 10 uM by sulforhodamine B assay; details: read-out: GI
NCI-H460 [6] = assay: Growth inhibition of human NCI-H460 cells assessed as cell growth at 10 uM by sulforhodamine B assay; details: read-out: Activity
OVCAR-5 = assay: Growth inhibition of human OVCAR5 cells assessed as growth inhibition at 10 uM by sulforhodamine B assay; details: read-out: GI
SW-620 = assay: Growth inhibition of human SW620 cells assessed as growth inhibition at 10 uM by sulforhodamine B assay; details: read-out: GI
MDA-MB-468 = assay: Growth inhibition of human MDA-MB-468 cells assessed as cell growth at 10 uM by sulforhodamine B assay; details: read-out: Activity
SN12C = assay: Growth inhibition of human SN12C cells assessed as growth inhibition at 10 uM by sulforhodamine B assay; details: read-out: GI
MDA-MB-435 = assay: Growth inhibition of human MDA-MB-435 cells assessed as cell growth at 10 uM by sulforhodamine B assay; details: read-out: Activity
KM12 [7] = assay: Growth inhibition of human KM12 cells assessed as cell growth at 10 uM by sulforhodamine B assay; details: read-out: Activity
BT-549 [8] = assay: Growth inhibition of human BT549 cells assessed as cell growth at 10 uM by sulforhodamine B assay; details: read-out: Activity
DU-145 = assay: Growth inhibition of human DU145 cells assessed as growth inhibition at 10 uM by sulforhodamine B assay; details: read-out: GI
OVCAR-3 [9] = assay: Growth inhibition of human OVCAR3 cells assessed as cell growth at 10 uM by sulforhodamine B assay; details: read-out: Activity
NCI-H460 [10] = assay: Growth inhibition of human NCI-H460 cells assessed as growth inhibition at 10 uM by sulforhodamine B assay; details: read-out: GI
UO-31 [11] = assay: Growth inhibition of human UO31 cells assessed as cell growth at 10 uM by sulforhodamine B assay; details: read-out: Activity
HCT-116 = assay: Growth inhibition of human HCT116 cells assessed as growth inhibition at 10 uM by sulforhodamine B assay; details: read-out: GI
BT-549 [12] = assay: Growth inhibition of human BT549 cells assessed as growth inhibition at 10 uM by sulforhodamine B assay; details: read-out: GI
MDA-MB-231 [13] = assay: Growth inhibition of human MDA-MB-231 cells assessed as growth inhibition at 10 uM by sulforhodamine B assay; details: read-out: GI
ACHN [14] = assay: Growth inhibition of human ACHN cells assessed as cell growth at 10 uM by sulforhodamine B assay; details: read-out: Activity
ACHN [15] = assay: Growth inhibition of human ACHN cells assessed as growth inhibition at 10 uM by sulforhodamine B assay; details: read-out: GI
SF-295 = assay: Growth inhibition of human SF295 cells assessed as cell growth at 10 uM by sulforhodamine B assay; details: read-out: Activity
786-0 [16] = assay: Growth inhibition of human 786-0 cells assessed as cell growth at 10 uM by sulforhodamine B assay; details: read-out: Activity
CCRF-CEM = assay: Growth inhibition of human CCRF-CEM cells assessed as cell growth at 10 uM by sulforhodamine B assay; details: read-out: Activity
[17] = Growth inhibition of human EKVX cells assessed as cell growth at 10 uM by sulforhodamine B assay; details: read-out: Activity
SF-539 [18] = assay: Growth inhibition of human SF539 cells assessed as growth inhibition at 10 uM by sulforhodamine B assay; details: read-out: GI
COLO 205 [19] = assay: Growth inhibition of human COLO205 cells assessed as growth inhibition at 10 uM by sulforhodamine B assay; details: read-out: GI
LOX IMVI = assay: Growth inhibition of human LOXIMVI cells assessed as cell growth at 10 uM by sulforhodamine B assay; details: read-out: Activity
T47D = assay: Growth inhibition of human T47D cells assessed as cell growth at 10 uM by sulforhodamine B assay; details: read-out: Activity
KM12 [20] = assay: Growth inhibition of human KM12 cells assessed as growth inhibition at 10 uM by sulforhodamine B assay; details: read-out: GI
UO-31 [21] = assay: Growth inhibition of human UO31 cells assessed as growth inhibition at 10 uM by sulforhodamine B assay; details: read-out: GI
[22] = Growth inhibition of human NCI-ADR-RES cells assessed as growth inhibition at 10 uM by sulforhodamine B assay; details: read-out: GI
SK-MEL-2 = assay: Growth inhibition of human SK-MEL-2 cells assessed as growth inhibition at 10 uM by sulforhodamine B assay; details: read-out: GI
[23] = Growth inhibition of human HCC2998 cells assessed as cell growth at 10 uM by sulforhodamine B assay; details: HCC 2998, read-out: Activity
UACC-62 = assay: Growth inhibition of human UACC62 cells assessed as growth inhibition at 10 uM by sulforhodamine B assay; details: read-out: GI
COLO 205 [24] = assay: Growth inhibition of human COLO205 cells assessed as cell growth at 10 uM by sulforhodamine B assay; details: read-out: Activity
IGROV-1 [25] = assay: Growth inhibition of human IGROV1 cells assessed as cell growth at 10 uM by sulforhodamine B assay; details: read-out: Activity
HT-29 = assay: Growth inhibition of human HT-29 cells assessed as cell growth at 10 uM by sulforhodamine B assay; details: read-out: Activity
SK-MEL-5 [26] = assay: Growth inhibition of human SK-MEL-5 cells assessed as cell growth at 10 uM by sulforhodamine B assay; details: read-out: Activity
NCI-H23 = assay: Growth inhibition of human NCI-H23 cells assessed as cell growth at 10 uM by sulforhodamine B assay; details: read-out: Activity
HL-60(TB) = assay: Growth inhibition of human HL-60(TB) cells assessed as growth inhibition at 10 uM by sulforhodamine B assay; details: read-out: GI
SF-539 [27] = assay: Growth inhibition of human SF539 cells assessed as cell growth at 10 uM by sulforhodamine B assay; details: read-out: Activity
SNB-19 = assay: Growth inhibition of human SNB19 cells assessed as cell growth at 10 uM by sulforhodamine B assay; details: read-out: Activity
OVCAR-3 [28] = assay: Growth inhibition of human OVCAR3 cells assessed as growth inhibition at 10 uM by sulforhodamine B assay; details: read-out: GI

CC(C)=CC(=O)O[C@@H]1CC(C)(C)C[C@H]2C3=CC[C@@H]4[C@@]5(C)CC[C@H](O)C(C)(C)[C@@H]5CC[C@@]4(C)[C@]3(C)CC[C@@]12C(=O)O [Reduced Lantadene B]
growth at 10 µM (SR): 70.2%
growth at 10 µM (MDA-MB-231 [1]): 81.3%
inhibition of growth at 10 µM (MCF7): 37.3%
inhibition of growth at 10 µM (IGROV-1 [2]): 21.7%
inhibition of growth at 10 µM (SK-MEL-5 [3]): 38.5%
growth at 10 µM (RXF 393): 85.2%
inhibition of growth at 10 µM [4]: 52.3%
growth at 10 µM (SF-268): 92.2%
inhibition of growth at 10 µM (786-0 [5]): 38.2%
growth at 10 µM (NCI-H460 [6]): 50.3%
inhibition of growth at 10 µM (OVCAR-5): < 10%
inhibition of growth at 10 µM (SW-620): 33.1%
growth at 10 µM (MDA-MB-468): 113%
inhibition of growth at 10 µM (SN12C): 49.1%
growth at 10 µM (MDA-MB-435): 95.3%
growth at 10 µM (KM12 [7]): 34.3%
growth at 10 µM (BT-549 [8]): 78.1%
inhibition of growth at 10 µM (DU-145): 13.4%
growth at 10 µM (OVCAR-3 [9]): 73.9%
inhibition of growth at 10 µM (NCI-H460 [10]): 49.7%
growth at 10 µM (UO-31 [11]): 60.9%
inhibition of growth at 10 µM (HCT-116): 72.8%
inhibition of growth at 10 µM (BT-549 [12]): 21.9%
inhibition of growth at 10 µM (MDA-MB-231 [13]): 18.7%
growth at 10 µM (ACHN [14]): 46.3%
inhibition of growth at 10 µM (ACHN [15]): 53.7%
growth at 10 µM (SF-295): 44.6%
growth at 10 µM (786-0 [16]): 61.8%
growth at 10 µM (CCRF-CEM): 27.4%
growth at 10 µM [17]: 47.7%
inhibition of growth at 10 µM (SF-539 [18]): 45.3%
inhibition of growth at 10 µM (COLO 205 [19]): 31.9%
growth at 10 µM (LOX IMVI): 53.2%
growth at 10 µM (T47D): 86.7%
inhibition of growth at 10 µM (KM12 [20]): 65.7%
inhibition of growth at 10 µM (UO-31 [21]): 39.1%
inhibition of growth at 10 µM [22]: 45.5%
inhibition of growth at 10 µM (SK-MEL-2): 13.5%
growth at 10 µM [23]: 62%
inhibition of growth at 10 µM (UACC-62): 32.8%
growth at 10 µM (COLO 205 [24]): 68.1%
growth at 10 µM (IGROV-1 [25]): 78.3%
growth at 10 µM (HT-29): 49.3%
growth at 10 µM (SK-MEL-5 [26]): 61.5%
growth at 10 µM (NCI-H23): 63.4%
inhibition of growth at 10 µM (HL-60(TB)): 86%
growth at 10 µM (SF-539 [27]): 54.7%
growth at 10 µM (SNB-19): 85.6%
inhibition of growth at 10 µM (OVCAR-3 [28]): 26.1%
